This note sets out measurements from ChEMBL document CHEMBL1201862, “PubChem BioAssay data set” (2004).

SMILES strings stand for the structures.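 Dose response: 5 concentrations. Exposure: 48 h. Format: 96-well plates. Endpoint: linear interpolation; highest concentration if not reached. GI50: concentration for 50% inhibition of growth.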 Active and inactive are the calls of the source. No stated cut-off is given here; in the data, active = GI50 up to about 1.1 µM and inactive = higher.

Among the test systems are HCC 2998; HL-60; HOP-62; HT-29; K562; LOX IMVI; NCI-H226; NCI-H460; OVCAR-5; OVCAR-8; RPMI-8226; RXF 393; SK-MEL-28; SK-MEL-5; SNB-75; SR; UACC-257; UACC-62; MOLT-4.
Holding throughout (test): growth of human tumour cells (NCI), 48 h

With `CC(C)(C)[C@H]1CO[C@]2(c3ccccc3)[C@@H]3C[C@@H]3C(=O)N12`, the GI50 with HCC 2998 was > 100 µM (inactive); with HL-60, > 100 µM (inactive); in the assay on HOP-62 it was > 100 µM (inactive); with HT-29 it was > 100 µM (inactive); in the assay on K562, > 10 µM (inactive); with LOX IMVI, > 100 µM (inactive). Moreover, the GI50 in the assay on NCI-H226, with NCI-H460, in the assay with OVCAR-5, in the assay with OVCAR-8, in the assay on RPMI-8226 and with RXF 393 was > 100 µM (inactive) throughout. The GI50 with SK-MEL-28, with SK-MEL-5, in the assay with SNB-75, with SR, with UACC-257 and in the assay with UACC-62 was > 100 µM (inactive) in each case.

Regarding `O=C1NC(=O)C2C1c1[nH]c3ccccc3c1C1CCCC12` (stereo not given), the GI50 is 6.55 µM (inactive) with HCC 2998; 0.573 µM (active) with HL-60; 2.07 µM (inactive) in the assay with HT-29; 0.48 µM (active) in the assay on K562; 3.52 µM (inactive) in the assay with LOX IMVI; 2.44 µM (inactive) with MOLT-4. Further, the GI50 is 3.61 µM (inactive) in the assay on NCI-H226; 4.17 µM (inactive) in the assay with NCI-H460; > 100 µM (inactive) in the assay on OVCAR-5; 4.93 µM (inactive) in the assay with OVCAR-8; 3.41 µM (inactive) in the assay with RPMI-8226; 2.7 µM (inactive) in the assay with RXF 393. Also, the GI50 in the assay on SK-MEL-28 was 4.1 µM (inactive); in the assay on SK-MEL-5, 0.893 µM (active); in the assay on SNB-75 it was 2.17 µM (inactive); in the assay with SR it was 2.81 µM (inactive); in the assay on UACC-62, 5.47 µM (inactive).

Turning to `CN(C(=O)C12C3C4C1C1C2C3C41I)C(C)(C)C` (stereo not given), the GI50 with HCC 2998 was > 60 µM (inactive); in the assay on HL-60, 33 µM (inactive); with HOP-62, > 100 µM (inactive); in the assay on HT-29 it was > 95.1 µM (inactive); with LOX IMVI it was > 100 µM (inactive); in the assay with NCI-H226, > 51.5 µM (inactive). Moreover, the GI50 is > 100 µM (inactive) in the assay with NCI-H460; > 100 µM (inactive) with OVCAR-5; > 100 µM (inactive) in the assay with OVCAR-8; > 100 µM (inactive) with RPMI-8226; > 100 µM (inactive) in the assay on SK-MEL-28; > 63.1 µM (inactive) with SK-MEL-5. In addition, the GI50 with SNB-75 is > 65.6 µM (inactive); in the assay on SR, > 29.4 µM (inactive); in the assay on UACC-257, > 88.5 µM (inactive); in the assay with UACC-62, > 83 µM (inactive).

In the case of `CN(C)CCNC1=CC(=O)c2nc3ccccc3c3ccnc1c23`, the GI50 with HCC 2998 is 4.47 µM (inactive); with HL-60, 3.83 µM (inactive); in the assay with HOP-62, 4.79 µM (inactive); in the assay with HT-29 it was 2.58 µM (inactive); in the assay with K562 it was 1.19 µM (inactive); with LOX IMVI it was 2.04 µM (inactive). Further, the GI50 in the assay with MOLT-4 was 2.48 µM (inactive); in the assay with NCI-H226, 2.04 µM (inactive); in the assay on NCI-H460, 2.39 µM (inactive); in the assay with OVCAR-5 it was 5.74 µM (inactive); in the assay on OVCAR-8, 4.36 µM (inactive); in the assay with RPMI-8226 it was 5.47 µM (inactive). The GI50 with SK-MEL-28 is 11.4 µM (inactive); in the assay on SNB-75, 13.1 µM (inactive); in the assay on SR, 2.25 µM (inactive); with UACC-257 it was 9.62 µM (inactive); in the assay on UACC-62 it was 5.31 µM (inactive).

In the case of `CCOC(=N)CC(=O)NC(C)c1ccccc1` (stereo not given), the GI50 with HCC 2998 is 87.7 µM (inactive); in the assay with HL-60, > 100 µM (inactive); with HOP-62, > 100 µM (inactive); with HT-29, > 100 µM (inactive); in the assay with K562 it was > 100 µM (inactive); in the assay with LOX IMVI, > 100 µM (inactive). For the same molecule, the GI50 with MOLT-4, with NCI-H226, in the assay with NCI-H460, in the assay with OVCAR-5, with OVCAR-8 and with RXF 393 was > 100 µM (inactive) throughout. Also, the GI50 with SK-MEL-28, in the assay with SK-MEL-5, in the assay with SNB-75, in the assay on SR, in the assay on UACC-257 and in the assay on UACC-62 was > 100 µM (inactive) each time.

For `CN(C)/C=C/C(=CC=[N+](C)C)/C=C/N(C)C.[O-][Cl+3]([O-])([O-])[O-]`, the GI50 is > 100 µM (inactive) with HCC 2998; > 100 µM (inactive) in the assay on HL-60; > 100 µM (inactive) in the assay with HOP-62; > 100 µM (inactive) in the assay on HT-29; > 100 µM (inactive) in the assay with K562; 57 µM (inactive) in the assay with LOX IMVI. Also, the GI50 in the assay with MOLT-4 is 90.4 µM (inactive); with NCI-H226, > 100 µM (inactive); with NCI-H460, > 100 µM (inactive); in the assay on OVCAR-5 it was > 100 µM (inactive); in the assay with OVCAR-8, > 100 µM (inactive); with RPMI-8226 it was > 100 µM (inactive). Also, the GI50 with RXF 393, with SK-MEL-28, with SK-MEL-5, in the assay on SR, in the assay with UACC-257 and in the assay on UACC-62 was > 100 µM (inactive) in each case.

On to `COC(=O)C(C(=O)Cc1ccccc1[N+](=O)[O-])C(=O)OC`, for which the GI50 with HCC 2998 was > 100 µM (inactive); with HL-60, 54.5 µM (inactive); in the assay with HOP-62, > 100 µM (inactive); in the assay on HT-29, > 100 µM (inactive); in the assay on LOX IMVI, > 100 µM (inactive); in the assay on MOLT-4, > 100 µM (inactive). For the same molecule, the GI50 in the assay with NCI-H226, with NCI-H460, in the assay with OVCAR-8, with RXF 393, in the assay with SK-MEL-28 and with SK-MEL-5 was > 100 µM (inactive) each time. Besides, the GI50 in the assay on SNB-75 was > 100 µM (inactive); in the assay on SR, 23.9 µM (inactive); in the assay with UACC-257, > 100 µM (inactive); with UACC-62, > 100 µM (inactive).

For `CC(C)C(/C=C/c1ccc(Cl)c(Cl)c1)=N\NC(=O)N/N=C(/C=C/c1ccc(Cl)c(Cl)c1)C(C)C`, the GI50 was > 100 µM (inactive) in the assay with HCC 2998; 80 µM (inactive) with HL-60; > 100 µM (inactive) in the assay on HOP-62; > 100 µM (inactive) with HT-29; > 100 µM (inactive) with K562; > 100 µM (inactive) in the assay on LOX IMVI. Besides, the GI50 in the assay on MOLT-4, in the assay on NCI-H226, in the assay with NCI-H460, in the assay with OVCAR-5, with OVCAR-8 and in the assay on RPMI-8226 was > 100 µM (inactive) each time. Further, the GI50 was > 100 µM (inactive) with SK-MEL-28; > 100 µM (inactive) in the assay on SK-MEL-5; > 100 µM (inactive) in the assay with SNB-75; 86.1 µM (inactive) in the assay on SR; > 100 µM (inactive) in the assay on UACC-257; > 100 µM (inactive) in the assay with UACC-62.

In the case of `CC(C)NCCCC(C)Nc1ccnc2ccc3nn(C)nc3c12` (stereo not given), the GI50 with HCC 2998 was 57.9 µM (inactive); in the assay with HL-60, 42.4 µM (inactive); in the assay on HOP-62, 52.7 µM (inactive); in the assay on HT-29 it was 37.8 µM (inactive); in the assay with K562 it was 33.2 µM (inactive); in the assay on LOX IMVI, 33.6 µM (inactive). For the same molecule, the GI50 with MOLT-4 was 35 µM (inactive); in the assay with NCI-H226 it was 31.8 µM (inactive); with NCI-H460, 38.6 µM (inactive); in the assay on OVCAR-5, 75.7 µM (inactive); in the assay on OVCAR-8, 43.6 µM (inactive); with RPMI-8226 it was 74.8 µM (inactive). Also, the GI50 in the assay with SK-MEL-5 is 38.5 µM (inactive); with SNB-75, > 100 µM (inactive); in the assay with SR, 40.1 µM (inactive); in the assay on UACC-257, 74.5 µM (inactive); with UACC-62 it was > 100 µM (inactive).

Turning to `CCCCCCCC(=O)OCC1OC(n2cc(F)c(=O)[nH]c2=O)C(NC(=O)OCc2ccccc2)C(O)C1O` (stereo not given), the GI50 was 19.5 µM (inactive) in the assay on HCC 2998; 40.3 µM (inactive) with HL-60; > 100 µM (inactive) in the assay on HOP-62; > 100 µM (inactive) in the assay on HT-29; 28.2 µM (inactive) in the assay on K562; 37.1 µM (inactive) in the assay on LOX IMVI. The GI50 in the assay on MOLT-4 is 27.9 µM (inactive); in the assay on NCI-H460 it was > 100 µM (inactive); in the assay with OVCAR-8, > 100 µM (inactive); with RPMI-8226, 26.4 µM (inactive); in the assay on RXF 393, > 100 µM (inactive); in the assay with SK-MEL-28 it was > 100 µM (inactive). The GI50 is 1.55 µM (inactive) with SK-MEL-5; 29.3 µM (inactive) in the assay on SNB-75; 31.8 µM (inactive) in the assay with SR; > 100 µM (inactive) in the assay with UACC-257; 32.1 µM (inactive) with UACC-62.

Turning to `COc1cc2c(cn1)[nH]c1ccccc12`, the GI50 with HCC 2998, in the assay on HL-60, with HOP-62, in the assay with HT-29, in the assay with K562 and in the assay on LOX IMVI was > 100 µM (inactive) in each case. Moreover, the GI50 in the assay with MOLT-4, in the assay on NCI-H226, in the assay on NCI-H460, in the assay with OVCAR-5, in the assay with OVCAR-8 and in the assay with RPMI-8226 was > 100 µM (inactive) in each case. In addition, the GI50 with SK-MEL-28 was 67.5 µM (inactive); in the assay with SK-MEL-5, 47.4 µM (inactive); in the assay on SNB-75 it was 55.8 µM (inactive); in the assay on SR it was > 100 µM (inactive); in the assay on UACC-257 it was 85.1 µM (inactive); in the assay with UACC-62, 53 µM (inactive).
